Experiments:
Assay type in all cases: functional
[1] = Growth inhibition of human LOXIMVI cells after 48 hrs by SRB assay; settings: LOX IMVI
[2] = Growth inhibition of human PC3 cells after 48 hrs by SRB assay; settings: PC-3, 48 h
[3] = Growth inhibition of human IGROV1 cells at 10 uM after 48 hrs by SRB assay relative to control; settings: IGROV-1, 48 h, read-out: GI
[4] = Growth inhibition of human DU145 cells after 48 hrs by SRB assay; settings: DU-145, 48 h
[5] = Growth inhibition of human UACC257 cells at 10 uM after 48 hrs by SRB assay relative to control; settings: UACC-257, 48 h, read-out: GI
[6] = Growth inhibition of human OVCAR5 cells at 10 uM after 48 hrs by SRB assay relative to control; settings: OVCAR-5, 48 h, read-out: GI
[7] = Growth inhibition of human HL-60(TB) cells after 48 hrs by SRB assay; settings: HL-60, 48 h
NCI-H322M = experiment: Growth inhibition of human NCI-H322M cells at 10 uM after 48 hrs by SRB assay relative to control; settings: read-out: GI
[8] = Growth inhibition of human IGROV1 cells after 48 hrs by SRB assay; settings: IGROV-1, 48 h
MDA-MB-231 = experiment: Growth inhibition of human MDA-MB-231 cells at 10 uM after 48 hrs by SRB assay relative to control; settings: MDA-MB-231, 48 h, read-out: GI
NCI-H460 [9] = experiment: Growth inhibition of human NCI-H460 cells after 48 hrs by SRB assay; settings: NCI-H460, 48 h
ACHN [10] = experiment: Growth inhibition of human ACHN cells after 48 hrs by SRB assay
[11] = Growth inhibition of human Hs 578T cells after 48 hrs by SRB assay
NCI-H522 = experiment: Growth inhibition of human NCI-H522 cells at 10 uM after 48 hrs by SRB assay relative to control; settings: NCI-H522, 48 h, read-out: GI
[12] = Growth inhibition of human OVCAR4 cells after 48 hrs by SRB assay; settings: OVCAR-4, 48 h
[13] = Growth inhibition of human NCI-ADR-RES cells at 10 uM after 48 hrs by SRB assay relative to control; settings: read-out: GI
[14] = Growth inhibition of human HOP92 cells after 48 hrs by SRB assay; settings: HOP-92, 48 h
[15] = Growth inhibition of human OVCAR4 cells at 10 uM after 48 hrs by SRB assay relative to control; settings: OVCAR-4, 48 h, read-out: GI
[16] = Growth inhibition of human SKOV3 cells after 48 hrs by SRB assay; settings: SK-OV-3, 48 h
[17] = Growth inhibition of human HCC2998 cells at 10 uM after 48 hrs by SRB assay relative to control; settings: HCC 2998, 48 h, read-out: GI
NCI-H460 [18] = experiment: Growth inhibition of human NCI-H460 cells at 10 uM after 48 hrs by SRB assay relative to control; settings: NCI-H460, 48 h, read-out: GI
[19] = Growth inhibition of human PC3 cells at 10 uM after 48 hrs by SRB assay relative to control; settings: PC-3, 48 h, read-out: GI
CCRF-CEM = experiment: Growth inhibition of human CCRF-CEM cells after 48 hrs by SRB assay
[20] = Growth inhibition of human SF539 cells after 48 hrs by SRB assay; settings: SF-539, 48 h
[21] = Growth inhibition of human OVCAR5 cells after 48 hrs by SRB assay; settings: OVCAR-5, 48 h
A549 = experiment: Growth inhibition of human A549 cells at 10 uM after 48 hrs by SRB assay relative to control; settings: A549, 48 h, read-out: GI
[22] = Growth inhibition of human SNB19 cells at 10 uM after 48 hrs by SRB assay relative to control; settings: SNB-19, 48 h, read-out: GI
NCI-H23 = experiment: Growth inhibition of human NCI-H23 cells after 48 hrs by SRB assay; settings: NCI-H23, 48 h
[23] = Growth inhibition of human SF295 cells at 10 uM after 48 hrs by SRB assay relative to control; settings: SF-295, 48 h, read-out: GI
SK-MEL-28 = experiment: Growth inhibition of human SK-MEL-28 cells after 48 hrs by SRB assay; settings: SK-MEL-28, 48 h
MCF7 = experiment: Growth inhibition of human MCF7 cells at 10 uM after 48 hrs by SRB assay relative to control; settings: MCF7, 48 h, read-out: GI
[24] = Growth inhibition of human HCT15 cells after 48 hrs by SRB assay; settings: HCT-15, 48 h
[25] = Growth inhibition of human DU145 cells at 10 uM after 48 hrs by SRB assay relative to control; settings: DU-145, 48 h, read-out: GI
ACHN [26] = experiment: Growth inhibition of human ACHN cells at 10 uM after 48 hrs by SRB assay relative to control; settings: read-out: GI
M14 = experiment: Growth inhibition of human M14 cells after 48 hrs by SRB assay; settings: M14, 48 h
[27] = Growth inhibition of human COLO205 cells at 10 uM after 48 hrs by SRB assay relative to control; settings: COLO 205, 48 h, read-out: GI
KM12 = experiment: Growth inhibition of human KM12 cells after 48 hrs by SRB assay; settings: KM12, 48 h
[28] = Growth inhibition of human Caki1 cells after 48 hrs by SRB assay; settings: CAKI-1, 48 h
[29] = Growth inhibition of human COLO205 cells after 48 hrs by SRB assay; settings: COLO 205, 48 h
T47D = experiment: Growth inhibition of human T47D cells at 10 uM after 48 hrs by SRB assay relative to control; settings: read-out: GI
[30] = Growth inhibition of human UO31 cells after 48 hrs by SRB assay; settings: UO-31, 48 h
[31] = Growth inhibition of human LOXIMVI cells at 10 uM after 48 hrs by SRB assay relative to control; settings: LOX IMVI, read-out: GI
[32] = Growth inhibition of human SF539 cells at 10 uM after 48 hrs by SRB assay relative to control; settings: SF-539, 48 h, read-out: GI
SK-MEL-2 = experiment: Growth inhibition of human SK-MEL-2 cells after 48 hrs by SRB assay; settings: SK-MEL-2, 48 h
[33] = Growth inhibition of human SNB75 cells at 10 uM after 48 hrs by SRB assay relative to control; settings: SNB-75, 48 h, read-out: GI
[34] = Growth inhibition of human OVCAR3 cells after 48 hrs by SRB assay; settings: OVCAR-3, 48 h

COc1ccc(C(=O)N2c3ccccc3Sc3ccccc32)c(F)c1
GI50 [1]: 727 nM | GI50 [2]: 407 nM | inhibition of growth at 10 µM [3]: 45% | GI50 [4]: 1400 nM | inhibition of growth at 10 µM [5]: 33% | inhibition of growth at 10 µM [6]: 38% | GI50 [7]: 325 nM | inhibition of growth at 10 µM (NCI-H322M): 56% | GI50 [8]: 807 nM | inhibition of growth at 10 µM (MDA-MB-231): 47% | GI50 (NCI-H460 [9]): 485 nM | GI50 (ACHN [10]): 831 nM | GI50 [11]: 377 nM | inhibition of growth at 10 µM (NCI-H522): 99% | GI50 [12]: 2010 nM | inhibition of growth at 10 µM [13]: 98% | GI50 [14]: 238 nM | inhibition of growth at 10 µM [15]: 51% | GI50 [16]: 4130 nM | inhibition of growth at 10 µM [17]: 70% | inhibition of growth at 10 µM (NCI-H460 [18]): 88% | inhibition of growth at 10 µM [19]: 70% | GI50 (CCRF-CEM): 522 nM | GI50 [20]: 409 nM | GI50 [21]: 3660 nM | inhibition of growth at 10 µM (A549): 73% | inhibition of growth at 10 µM [22]: 64% | GI50 (NCI-H23): 3420 nM | inhibition of growth at 10 µM [23]: 91% | GI50 (SK-MEL-28): 1640 nM | inhibition of growth at 10 µM (MCF7): 76% | GI50 [24]: 419 nM | inhibition of growth at 10 µM [25]: 95% | inhibition of growth at 10 µM (ACHN [26]): 52% | GI50 (M14): 371 nM | inhibition of growth at 10 µM [27]: 92% | GI50 (KM12): 489 nM | GI50 [28]: 584 nM | GI50 [29]: 445 nM | inhibition of growth at 10 µM (T47D): 60% | GI50 [30]: 3780 nM | inhibition of growth at 10 µM [31]: 60% | inhibition of growth at 10 µM [32]: 100% | GI50 (SK-MEL-2): 531 nM | inhibition of growth at 10 µM [33]: 100% | GI50 [34]: 418 nM

— ChEMBL document CHEMBL3792297, “Studies on phenothiazines: New microtubule-interacting compounds with phenothiazine A-ring as potent antineoplastic agents” (Bioorg Med Chem, 2016)
